Measurements: PubChem BioAssay (NCI)
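96-well plates; 48 h exposure; 5 concentrations. Endpoints by linear interpolation between flanking doses. Not reached: highest tested concentration assigned. GI50 is the concentration that inhibits growth by half. TGI: concentration producing complete growth inhibition.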

System: T-47D breast
Experiment: DTP human tumour cell line panel, 48 h

SMILES | GI50 | TGI
CCN(CC)c1ccc(C(=N)c2ccc(N(CC)CC)cc2)cc1 | 0.311 µM | 1.73 µM

System: NCI-H522 lung
Experiment: DTP human tumour cell line panel, 48 h

SMILES | TGI | GI50
Cc1cc(SCC(=O)c2ccccc2)nc2ccccc12 | > 100 µM | –
Cc1cc(C)c(C(=O)CC(=O)c2cccnc2)c(C)c1 | > 100 µM | 13.4 µM
CC1CN1CC(O)C(O)CN1CC1C (stereo unspecified) | 7.08 µM | 1.72 µM
CCN(CC)c1ccc(C(=N)c2ccc(N(CC)CC)cc2)cc1 | 0.765 µM | 0.193 µM

System: OVCAR-3 ovarian
Experiment: DTP human tumour cell line panel, 48 h

SMILES | TGI | GI50
Cc1cc(SCC(=O)c2ccccc2)nc2ccccc12 | > 100 µM | –
Cc1cc(C)c(C(=O)CC(=O)c2cccnc2)c(C)c1 | 77.4 µM | 5.78 µM
CC1CN1CC(O)C(O)CN1CC1C (stereo unspecified) | 10.7 µM | 2.52 µM
CCN(CC)c1ccc(C(=N)c2ccc(N(CC)CC)cc2)cc1 | 0.995 µM | 0.27 µM

System: CCRF-CEM leukemia
Experiment: DTP human tumour cell line panel, 48 h

SMILES | GI50 | TGI
Cc1cc(C)c(C(=O)CC(=O)c2cccnc2)c(C)c1 | 4.1 µM | 45.8 µM
CC1CN1CC(O)C(O)CN1CC1C (stereo unspecified) | 1.41 µM | > 100 µM
CCN(CC)c1ccc(C(=N)c2ccc(N(CC)CC)cc2)cc1 | 0.741 µM | 9.3 µM

System: HL-60(TB) leukemia
Experiment: DTP human tumour cell line panel, 48 h

SMILES | TGI | GI50
Cc1cc(SCC(=O)c2ccccc2)nc2ccccc12 | > 100 µM | –
Cc1cc(C)c(C(=O)CC(=O)c2cccnc2)c(C)c1 | 31.7 µM | 8.59 µM
CC1CN1CC(O)C(O)CN1CC1C (stereo unspecified) | 20.1 µM | 0.305 µM
CCN(CC)c1ccc(C(=N)c2ccc(N(CC)CC)cc2)cc1 | 1.13 µM | 0.276 µM

System: SF-295 CNS
Experiment: DTP human tumour cell line panel, 48 h

SMILES | TGI | GI50
Cc1cc(SCC(=O)c2ccccc2)nc2ccccc12 | > 100 µM | –
Cc1cc(C)c(C(=O)CC(=O)c2cccnc2)c(C)c1 | 83.5 µM | 2.78 µM
CC1CN1CC(O)C(O)CN1CC1C (stereo unspecified) | > 33.4 µM | 0.494 µM
CCN(CC)c1ccc(C(=N)c2ccc(N(CC)CC)cc2)cc1 | 2.02 µM | 0.438 µM

System: SW-620 colon
Experiment: DTP human tumour cell line panel, 48 h

SMILES | TGI | GI50
Cc1cc(SCC(=O)c2ccccc2)nc2ccccc12 | > 100 µM | –
Cc1cc(C)c(C(=O)CC(=O)c2cccnc2)c(C)c1 | > 100 µM | 4.72 µM
CC1CN1CC(O)C(O)CN1CC1C (stereo unspecified) | > 62 µM | 2.47 µM
CCN(CC)c1ccc(C(=N)c2ccc(N(CC)CC)cc2)cc1 | 1.5 µM | 0.346 µM

System: DU-145 prostate
Experiment: DTP human tumour cell line panel, 48 h

SMILES | TGI | GI50
Cc1cc(SCC(=O)c2ccccc2)nc2ccccc12 | > 100 µM | –
Cc1cc(C)c(C(=O)CC(=O)c2cccnc2)c(C)c1 | > 100 µM | 12.2 µM
CC1CN1CC(O)C(O)CN1CC1C (stereo unspecified) | 9.28 µM | 0.48 µM
CCN(CC)c1ccc(C(=N)c2ccc(N(CC)CC)cc2)cc1 | 2.65 µM | 0.467 µM

System: SK-MEL-2 melanoma
Experiment: DTP human tumour cell line panel, 48 h

SMILES | TGI | GI50
Cc1cc(SCC(=O)c2ccccc2)nc2ccccc12 | > 100 µM | –
Cc1cc(C)c(C(=O)CC(=O)c2cccnc2)c(C)c1 | > 100 µM | 17.3 µM
CC1CN1CC(O)C(O)CN1CC1C (stereo unspecified) | > 64.2 µM | 8.58 µM
CCN(CC)c1ccc(C(=N)c2ccc(N(CC)CC)cc2)cc1 | 1.52 µM | 0.423 µM

System: OVCAR-5 ovarian
Experiment: DTP human tumour cell line panel, 48 h

SMILES | TGI | GI50
Cc1cc(SCC(=O)c2ccccc2)nc2ccccc12 | > 100 µM | –
Cc1cc(C)c(C(=O)CC(=O)c2cccnc2)c(C)c1 | > 100 µM | 9.84 µM
CC1CN1CC(O)C(O)CN1CC1C (stereo unspecified) | > 85.1 µM | 13.4 µM
CCN(CC)c1ccc(C(=N)c2ccc(N(CC)CC)cc2)cc1 | 6.07 µM | 1.53 µM

System: HCC-2998 colon
Experiment: DTP human tumour cell line panel, 48 h

SMILES | GI50 | TGI
Cc1cc(C)c(C(=O)CC(=O)c2cccnc2)c(C)c1 | 12.8 µM | > 100 µM
CC1CN1CC(O)C(O)CN1CC1C (stereo unspecified) | 6.21 µM | 23.4 µM
CCN(CC)c1ccc(C(=N)c2ccc(N(CC)CC)cc2)cc1 | 1.1 µM | 3.17 µM

System: HOP-92 NSCLC
Experiment: DTP human tumour cell line panel, 48 h

SMILES | TGI | GI50
Cc1cc(SCC(=O)c2ccccc2)nc2ccccc12 | > 100 µM | –
Cc1cc(C)c(C(=O)CC(=O)c2cccnc2)c(C)c1 | 57 µM | 7.47 µM
CC1CN1CC(O)C(O)CN1CC1C (stereo unspecified) | > 28.6 µM | 6.12 µM
CCN(CC)c1ccc(C(=N)c2ccc(N(CC)CC)cc2)cc1 | 2.72 µM | 0.607 µM

System: 786-0 renal
Experiment: DTP human tumour cell line panel, 48 h

SMILES | TGI | GI50
Cc1cc(SCC(=O)c2ccccc2)nc2ccccc12 | > 100 µM | –
Cc1cc(C)c(C(=O)CC(=O)c2cccnc2)c(C)c1 | 50.1 µM | 9.45 µM
CC1CN1CC(O)C(O)CN1CC1C (stereo unspecified) | > 41.2 µM | 0.831 µM
CCN(CC)c1ccc(C(=N)c2ccc(N(CC)CC)cc2)cc1 | 2.05 µM | 0.646 µM

System: SK-MEL-28 melanoma
Experiment: DTP human tumour cell line panel, 48 h

SMILES | TGI | GI50
Cc1cc(SCC(=O)c2ccccc2)nc2ccccc12 | > 100 µM | –
Cc1cc(C)c(C(=O)CC(=O)c2cccnc2)c(C)c1 | > 100 µM | 14 µM
CC1CN1CC(O)C(O)CN1CC1C (stereo unspecified) | 97.4 µM | 17.5 µM
CCN(CC)c1ccc(C(=N)c2ccc(N(CC)CC)cc2)cc1 | 2.81 µM | 0.916 µM

System: EKVX NSCLC
Experiment: DTP human tumour cell line panel, 48 h

SMILES | TGI | GI50
Cc1cc(SCC(=O)c2ccccc2)nc2ccccc12 | > 100 µM | –
Cc1cc(C)c(C(=O)CC(=O)c2cccnc2)c(C)c1 | 69.6 µM | 3.97 µM
CC1CN1CC(O)C(O)CN1CC1C (stereo unspecified) | > 80.6 µM | 13.8 µM
CCN(CC)c1ccc(C(=N)c2ccc(N(CC)CC)cc2)cc1 | 11.8 µM | 0.868 µM

System: KM12 colon
Experiment: DTP human tumour cell line panel, 48 h

SMILES | TGI | GI50
Cc1cc(SCC(=O)c2ccccc2)nc2ccccc12 | > 100 µM | –
Cc1cc(C)c(C(=O)CC(=O)c2cccnc2)c(C)c1 | > 100 µM | 8.01 µM
